Publication PMC11903733 (Frontiers in Pharmacology, 2025)

What was measured:
[1] = target: T1, LSD1 (Homo sapiens, UniProt O60341); assay: Lance Ultra LSD1 demethylase TR-FRET enzyme inhibition assay; type: biochemical; conditions: for LSD2/LSD1 selectivity (folds): ratio of LSD2 IC50 to LSD1 IC50; for IC50: recombinant human LSD1 (172–852 aa) 2 nM, Bio-H3K4me2 substrate, 1 h, TR-FRET, mean ± SD, n = 3
T1 construct: Recombinant human LSD1 (172–852 aa); by word order LSD1 from Sino Biological
Source text: (§1) These were utilized in both in vitro and in vivo assays. Iscove’s Modified Dulbecco’s Medium (IMDM), Roswell Park Memorial Institute (RPMI)-1640 medium, fetal bovine serum (FBS) and penicillin/streptomycin were purchased from Gibco (Grand Island, New Nork, United States). Recombinant human LSD1 (172–852 aa) and full-length LSD2 were obtained from Sino Biological Inc. and ActiveMotif.
(§2) The inhibitory effects of the tested compounds on LSD1 and LSD2 enzymes were methodically assessed using the Lance Ultra LSD1 Histone H3-Lysine 4 Demethylase Assay Kit from PerkinElmer, adhering to previously published methodologies ([Li et al., 2022]). In brief, the reaction was initiated by adding 4 μL of enzyme solution, with concentrations specified at 2 nM for LSD1 or 172 nM for LSD2, 4 μL of substrate solution [2.5 μM Bio-H3K4me2 ([…])], and 2 μL of tested compound to a Tris buffer (50 mM Tris-HCl, 50 mM NaCl, 0.01% Tween 20, 1 mM DTT, 10 μM FAD, 10% glycerol, pH 9.0) at room temperature and incubated for 1 h. Following the incubation, 5 μL of a detection mixture, comprising an Eu-labeled H3K4me0 antibody and ULight Streptavidin, was added to the reaction. The fluorescence intensity was then measured employing TR-FRET mode with excitation and emission wavelengths set at 320 nm and 665 nm, respectively, utilizing the Envision (PerkinElmer) system. Each experiment was performed in triplicate.

[2] = target: T2, LSD2 (Homo sapiens, UniProt Q8NB78); assay: Lance Ultra demethylase TR-FRET enzyme inhibition assay, LSD2; type: biochemical; conditions: full-length LSD2 172 nM, Bio-H3K4me2 substrate, 1 h, mean ± SD, n = 3
T2 construct: full-length LSD2; by word order LSD2 from ActiveMotif
T2 sequence (Q8NB78 1-822): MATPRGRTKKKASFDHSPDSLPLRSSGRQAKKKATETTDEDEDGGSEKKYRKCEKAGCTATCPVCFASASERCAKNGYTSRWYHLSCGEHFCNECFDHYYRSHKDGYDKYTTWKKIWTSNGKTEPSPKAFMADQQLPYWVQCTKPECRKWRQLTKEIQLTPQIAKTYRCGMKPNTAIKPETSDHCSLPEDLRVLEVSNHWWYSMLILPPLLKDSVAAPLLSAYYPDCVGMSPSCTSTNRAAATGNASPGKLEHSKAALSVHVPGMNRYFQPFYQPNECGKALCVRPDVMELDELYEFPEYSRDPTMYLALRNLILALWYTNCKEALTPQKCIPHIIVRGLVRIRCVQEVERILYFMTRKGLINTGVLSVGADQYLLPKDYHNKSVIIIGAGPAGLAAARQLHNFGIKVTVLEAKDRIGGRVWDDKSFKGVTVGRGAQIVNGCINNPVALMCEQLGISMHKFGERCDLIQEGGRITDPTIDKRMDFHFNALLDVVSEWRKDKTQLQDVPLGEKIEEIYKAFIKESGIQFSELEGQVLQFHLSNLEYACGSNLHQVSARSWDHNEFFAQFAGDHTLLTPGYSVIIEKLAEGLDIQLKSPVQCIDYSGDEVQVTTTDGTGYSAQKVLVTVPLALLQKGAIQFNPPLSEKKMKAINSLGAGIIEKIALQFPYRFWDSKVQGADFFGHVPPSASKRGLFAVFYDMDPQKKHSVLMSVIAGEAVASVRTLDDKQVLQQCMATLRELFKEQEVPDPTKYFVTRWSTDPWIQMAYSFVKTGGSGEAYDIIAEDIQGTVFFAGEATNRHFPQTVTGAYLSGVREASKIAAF
Source text: as §1, §2

[3] = test system: MV-4-11 cells; assay: MTS cell proliferation assay; type: cell-based; conditions: Homo sapiens, MV4-11, LSD1-addicted MV-4-11 leukemia cells, 72 h
Protocol: (§3) The myeloid leukemia cell lines MV-4-11, MOLT-4, MOLM-16, HL-60, and the human B lymphocyte cell line […] were purchased from the American Type Culture Collection (ATCC, Manassas, VA, United States). The myeloid leukemia cell line HAL-01 was obtained from the Deutsche Sammlung von Mikroorganismen und Zellkulturen GmbH (DSMZ, Braunschweig, Germany). All cells were cultured in IMDM or RPMI -1640 medium supplemented with 10% FBS, 100 U/mL penicillin, and 100 μg/mL streptomycin. The cells were maintained in a humidified incubator with an atmosphere of 5% CO2 at 37°C.
(§4) The in vitro anti-proliferative activity of the compounds was determined using the CellTiter 96® AQueous NonRadioactive Cell Proliferation Assay Kit (Promega, Madison, United States) as previously described ([Ji et al., 2017]). In brief, 5–10 × 10^3 cells and 180 μL of medium were first seeded into each well of a 96-well plate. Subsequently, the cells were exposed to either 0.2% Dimethyl sulfoxide (DMSO, Aladdin Reagent, Shanghai, China) or a serial dilution of the compounds, prepared from a 10 mM stock solution in DMSO, with the final concentration of DMSO being 0.2% for 72 h. 20 μL of MTS reagent was added to each well, and the culture was incubated in the dark at 37°C for 4 h. Finally, the optical density (OD) was then recorded at 490 nm and 690 nm using a microplate reader from Molecular Devices. The proliferation inhibition rate was calculated according to the following formula: inhibition ratio = (OD of DMSO treated wells - OD of compound treated wells)/(OD of DMSO treated wells - OD of blank wells) × 100%. The IC50 values of the compounds inhibiting cell proliferation were calculated using GraphPad Prism 10 (GraphPad Software Inc., San Diego, CA).

[4] = test system: RPMI-8226 cells; assay: MTS cell proliferation assay; type: cell-based; conditions: Homo sapiens, LSD1-non-sensitive RPMI-8226 cells, 72 h
Protocol: as §3, §4

SMILES	LSD2/LSD1 selectivity (folds) [1]	IC50 [1]	IC50 [2]	IC50 [3]	IC50 [4]
O=C(O)c1ccc(CN2CCC(CN[C@@H]3C[C@H]3c3ccccc3)CC2)cc1 [GSK2879552, reference compound]	4 folds	24.5 ± 2.26 nM	104 ± 5.75 nM	1.17 ± 0.28 µM	21.3 ± 2.69 µM
O=S(=O)(c1cccc(-c2ccccc2)c1)N1CCc2cc(C3CC3NCC3CCNCC3)ccc21 (stereo not drawn) [LTM-2]	215 folds	10.2 ± 2.71 nM	2200 nM	0.74 ± 0.06 µM	> 100 µM
O=S(=O)(c1ccc(CO)c(Cl)c1)N1CCc2cc(C3CC3NCC3CCNCC3)ccc21 (stereo not drawn) [LTM-3]	668 folds	4.57 ± 0.32 nM	3050 nM	0.32 ± 0.04 µM	> 100 µM
C=CCc1cccc(S(=O)(=O)N2CCc3cc(C4CC4NCC4CCNCC4)ccc32)c1 (stereo not drawn) [LTM-4]	97 folds	8.92 ± 0.57 nM	861 ± 26.7 nM	0.63 ± 0.05 µM	> 100 µM
O=S(=O)(c1cccc(CC2CC2)c1)N1CCc2cc(C3CC3NCC3CCNCC3)ccc21 (stereo not drawn) [LTM-5]	92 folds	7.31 ± 0.46 nM	674 ± 21.5 nM	0.51 ± 0.03 µM	> 100 µM
O=S(=O)(c1cccc(CC2CCCCC2)c1)N1CCc2cc(C3CC3NCC3CCNCC3)ccc21 (stereo not drawn) [LTM-6]	>302 folds	16.5 ± 2.39 nM	> 5000 nM	0.98 ± 0.07 µM	> 100 µM
